Results reported in patent US20250281564A1, “DYSREGULATION OF NEUROPROTEASOMES BY APOE ISOFORMS DRIVES ENDOGENOUS TAU AGGREGATION” (The Trustees of Columbia University in the City of New York, priority 2022, published 2025).

Tests used:
[1] = test system: Thioflavin S-positive aggregates; experiment: Thioflavin S staining of hippocampal sections of hTau-KI mice after stereotactic injection; settings: hTau-KI mice, stereotactic, 72 hours
phosphorylated Tau = experiment: Immunohistochemistry for phosphorylated Tau (AT8) in hTau-KI mice after stereotactic injection; settings: hTau-KI mice, stereotactic, 72 hours

## C[C@@H]1C[C@@H]([C@H](O)CC2CC(=O)NC(=O)C2)C(=O)[C@@H](C)C1 [cycloheximide, reference compound]
[1]
  ThioS+ staining, co-injection with iBEp vs iBEp alone: complete return to baseline of ThioS+ staining
Phosphorylated Tau
  AT8 staining, co-injection with iBEp vs contralateral iBEp alone: completely eliminated AT8 staining
